What was measured:
TrkB receptor = target: T1, TrkB receptor (Rattus norvegicus, UniProt Q63604); assay: ELFI TrkB phosphorylation, orthosteric agonist mode, SN56 T48 cell line; type: cell-based; settings: 0.125–100 μM, 15 min
T1 construct: host or cells: SN56 T48 cell line
Experimental: The SN56 T48 cell line with stable overexpression of the TrkB receptor was purchased from Emory University (Atlanta, GA, USA) and cultivated according to the protocol described in Jang et al., 2010 [12]. The cell lines were cultivated with the following reagents: DMEM High Glucose, fetal bovine serum (FBS), Penicillin-Streptomycin Solution 100×, and Trypsin-EDTA 1×; all were purchased from Biowest, and G418 was from ThermoFisher Scientific. For the ELFI experiments, cells were seeded (8000/well) on a PDL-treated 96-well plate (BioCoat™, Corning Inc., Corning, NY, USA) and 6-well plate (400,000/well) for lysate collection and immunoblot analysis.
In the orthosteric agonist mode experiments, starved cells (5 h) were treated with compounds (0.125–100 μM; volume, 100 μL/well) or BDNF (0.01–10 nM; volume, 100 μL/well) dissolved in culture medium. In the allosteric modulation mode experiments, starved cells (5 h) were treated with final compound concentrations of 3, 10, and 30 μM; volume, 50 μL/well) in the presence of a rising concentration of BDNF (final concentration in well, 0.15–5 nM; volume, 50 μL/well). Corresponding treatment with DMSO (v/v) was performed for a control. Cells were treated for 15 min in both the orthosteric and allosteric modulation mode experiments.
The analysis of TrkB receptor activation was performed using the ELFI method adapted from Boltayev et al. (2017) with some modifications. After compound treatment, experiments were stopped by fixing cells with 10% buffered formalin (Kolchem, Lodz, Poland) for 20 min (volume, 100 μL/well). Afterwards, cells were permeabilized with washing buffer (TBS+ 0.1% Tween20) for 15 min, and endogenous peroxidases were quenched by 20 min of incubation with 1% H2O2 dissolved in TBS (each solution: volume, 100 μL/well). Epitopes were blocked with 10% BSA (Biowest) dissolved in washing buffer for 2 h (volume, 100 μL/well) and incubated with anti-pTrkB (Tyr707) primary antibody (Cell Signaling Technology, Danvers, MA, USA) diluted in washing buffer (1:500; overnight at 4 °C; volume, 100 μL/well). After repeated washing, cells were incubated with HRP-linked anti-rabbit antibody (Cell Signaling Technology) for 2 h (1:1000; RT; volume, 100 μL/well) and washed. The cells were then incubated with 100 μL of ImmunoCruz™ Western Blotting Luminol (Santa Cruz Biotechnology, Dallas, TX, USA) for 1 min in the dark, and the signals were measured using a microplate luminometer (VICTOR Light 1420-060, PerkinElmer®, Waltham, MA, USA). For non-specific binding, cells were treated, with the exception of primary antibody.

[1] = Metabolic stability in mouse liver microsomes; settings: for Clint MLM: 1 μM, phase I; for Metabolic stability in MLM (classification): compared with verapamil
[2] = Metabolic stability in human liver microsomes; settings: for Clint HLM: 1 μM, phase I; for Metabolic stability in HLM (classification): compared with verapamil
PAMPA = settings: for PAMPA: 10 μM, 4 h
[3] = Chemical stability pH 7.4; type: physicochemical; settings: pH = 7.4, 4 h
Caco-2 monolayer = assay: Caco-2 passive permeability; settings: for Papp,AB: Caco-2, apical to basal; for Papp,AB / Papp,BA: 2 h; for Papp,BA: Caco-2, basal to apical
exTrkB = target: T2, exTrkB (Homo sapiens, UniProt Q16620); assay: MST binding affinity (Kd) determination
T2 construct: human TrkB receptor (exTrkB), residues 1−430, was cloned into the pCMV2 expression vector; made in house; host or cells: ExpiCHO-S cells
T2 sequence (Q16620 32-430): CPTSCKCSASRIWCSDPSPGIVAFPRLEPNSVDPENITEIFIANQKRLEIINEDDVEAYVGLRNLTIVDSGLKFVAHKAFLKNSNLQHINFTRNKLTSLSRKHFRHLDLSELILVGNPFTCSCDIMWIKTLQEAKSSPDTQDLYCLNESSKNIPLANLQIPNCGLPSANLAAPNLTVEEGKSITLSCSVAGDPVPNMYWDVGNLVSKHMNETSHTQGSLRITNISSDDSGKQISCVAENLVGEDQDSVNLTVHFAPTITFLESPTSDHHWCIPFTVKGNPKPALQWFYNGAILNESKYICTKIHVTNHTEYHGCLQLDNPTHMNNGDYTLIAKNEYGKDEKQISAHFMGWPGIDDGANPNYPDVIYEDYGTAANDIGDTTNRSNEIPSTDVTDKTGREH
Experimental: The gene encoding the extracellular domain of the human TrkB receptor (exTrkB), residues 1−430, was cloned into the pCMV2 expression vector. Protein expression was performed in suspension-cultivated mammalian ExpiCHO-S cells using the ExpiFectamine (Thermo Scientific, Thermo Fisher Scientific, Waltham, MA, USA) transfection reagent. The secreted protein was purified using a four-step protocol. Clarified culture medium was precipitated with ammonium sulfate added to a final concentration of 1.5 M and centrifuged (235,000× g, 60 min at 4 °C). The supernatant after centrifugation was applied on a HiTrap Phenyl column (GE Healthcare, Chicago, IL, USA) equilibrated with buffer A (25 mM Tris, 1 mM DTT; pH 7.5) with 1.5 M ammonium sulfate. Bound proteins were eluted with a linear gradient of buffer A. The eluted proteins were dialyzed overnight in buffer A and loaded on a CaptoQ ImpRes column (GE Healthcare) equilibrated with buffer A with 50 mM NaCl. The bound proteins were eluted with a linear gradient of buffer A with 1 M NaCl. The fractions containing exTrkB protein were pooled, and MnCl2 and CaCl2 (1mM final concentration each) were added. The sample was purified on a HiTrap Con A 4B column (GE Healthcare) equilibrated with buffer B (25 mM Tris, 0.5 M NaCl, 1 mM MnCl2, 1 mM CaCl2; pH 7.5) and eluted with buffer C (25 mM Tris, 0.1 M NaCl, 0.4 M α-D-glucopyranoside; pH 6.5). To improve the protein recovery, buffer C flow was paused nine times during elution. The eluted fractions were concentrated and purified by size-exclusion chromatography on a HiLoad 16/600 Superdex 200 column (GE Healthcare) in buffer A with 0.5 M NaCl. The protein samples were concentrated to 1 mg/mL, and buffer was exchanged (PBS; pH 7.4). Samples were frozen in liquid nitrogen and stored at −80 °C. The protein purity was estimated by SDS–PAGE followed by Coomassie Brilliant Blue staining. The protein concentration was determined from the absorption at 280 nm using an UV NanoDrop 1000 spectrophotometer (Thermo Scientific).
The exTrkB was labeled with a Monolith Protein Labeling Kit RED-NHS 2nd Generation (NanoTemper Technologies GmbH, Munich, Germany) according to the manufacturer’s protocol. The labelling efficiency was always determined spectrophotometrically with NanoPhotometer® NP80 (Impel) in line with the manufacturer’s recommendations. Labelled exTrkB protein was aliquoted and stored at −80 °C to avoid repeated freeze–thaw cycles. Before analysis, the exTrkB protein was thawed on ice and diluted with MST buffer (50 mM Tris pH = 8; 150 mM NaCl; 10 mM MgCl2; 0.1% Tween20) to the desired concentration.
For primary screening (single-point MST experiments for signal amplitude determination), each of the 987 screened compounds were diluted in MST buffer + 0.1% Tween20 to a final concentration of 0.5 mM. The tested compounds were mixed with exTrkB solution (the final concentration of exTrkB was 20 nM) and centrifuged (10,000× g, 4 min at 4 °C) to eliminate protein and compound aggregates. Before loading to capillaries (Monolith NT.115 Capillaries, NanoTemper Technologies GmbH), the samples were incubated for 5 min at 25 °C and then placed into the MST apparatus (Monolith, NanoTemper Technologies GmbH). The experiments were performed using nano-blue excitation, LED light adjusted to 20% excitation power, and MST power set to medium, and the fluorescence signal during thermophoresis was detected after 30 s. Single-point MST experiments were performed by the determination of the amplitude signal between the unbound and bound state between the molecule and exTrkB, which was analyzed using the MO.Control Software version 1.6 (NanoTemper Technologies GmbH). A reference sample containing only exTrkB and the equivalent DMSO concentration (v/v) was included in each individual MST experiment. At least three technical replicates were prepared for each of the tested compounds. A binding affinity study was performed for 113 of the selected compounds at 16 concentration points. […]

[4] = pH 7.4
in vivo = type: in vivo, BALB/c mice; settings: mouse, in vivo
Experimental: The animals were obtained from the Center of Experimental Medicine (University of Bialystok, Bialystok, Poland) and housed under standard laboratory conditions. Mice had unlimited access to water and food. All the procedures were conducted according to the guidelines of the local ethical commission (appl no. 06/2019, perm. no 10/2019). […] Four animals per time point were sacrificed at 10 min, 30 min, 1 h, 2 h, and 4 h after per os administration and 5 min, 10 min, 30 min, 1 h, and 2 h after i.v. administration. The blood (0.5 mL) was collected by heart puncture using probes with anticoagulants (K2EDTA). Plasma samples were obtained by blood centrifugation (15 min, 3000× g at 23 °C). The whole brain was dissected from the skull and washed with cold 0.9% NaCl on ice. The left hemisphere was quickly frozen in liquid nitrogen and stored at −80 °C for further bioanalytical analysis. From the right hemisphere, the hippocampus and frontal cortex were isolated, weighed, and stored at −80 °C after freezing in liquid nitrogen. Isolated structures were homogenized in N-PER cocktail (10 μL for every 1 mg of tissue) using a hand homogenizer, and then processed as described in Section 4.3.3.
For bioanalytical evaluation, brain samples were homogenized in water (3 mL for every 1 g of brain tissue). Plasma and brain samples were then prepared by precipitating proteins and extracting analytes using acetonitrile with the addition of the internal standard: 150 μL of extraction solution was added to 50 μL of biological material, mixed for 1 min and centrifuged (12,900 RPM, 4 min, 4 °C), and the supernatant was collected for analysis. Standard solutions including calibration standards and quality control samples were prepared by spiking 45 μL of biological material with 5 μL of standard working solution, adding 150 μL of extraction solution, and then mixing, centrifuging, and collecting the supernatant for analysis. The concentrations of analytes in the plasma and brain samples were determined using a UPLC-MS/MS instrument (Agilent Technologies) and chromatographic columns (Agilent Zorbax Eclipse 50 × 2.1 mm; 1.7 μm).

[5] = Caco-2 passive permeability; settings: human, Caco-2, with 5 μM elacridar and 20 μM cyclosporine A

T1 sequence (Q63604 32-821): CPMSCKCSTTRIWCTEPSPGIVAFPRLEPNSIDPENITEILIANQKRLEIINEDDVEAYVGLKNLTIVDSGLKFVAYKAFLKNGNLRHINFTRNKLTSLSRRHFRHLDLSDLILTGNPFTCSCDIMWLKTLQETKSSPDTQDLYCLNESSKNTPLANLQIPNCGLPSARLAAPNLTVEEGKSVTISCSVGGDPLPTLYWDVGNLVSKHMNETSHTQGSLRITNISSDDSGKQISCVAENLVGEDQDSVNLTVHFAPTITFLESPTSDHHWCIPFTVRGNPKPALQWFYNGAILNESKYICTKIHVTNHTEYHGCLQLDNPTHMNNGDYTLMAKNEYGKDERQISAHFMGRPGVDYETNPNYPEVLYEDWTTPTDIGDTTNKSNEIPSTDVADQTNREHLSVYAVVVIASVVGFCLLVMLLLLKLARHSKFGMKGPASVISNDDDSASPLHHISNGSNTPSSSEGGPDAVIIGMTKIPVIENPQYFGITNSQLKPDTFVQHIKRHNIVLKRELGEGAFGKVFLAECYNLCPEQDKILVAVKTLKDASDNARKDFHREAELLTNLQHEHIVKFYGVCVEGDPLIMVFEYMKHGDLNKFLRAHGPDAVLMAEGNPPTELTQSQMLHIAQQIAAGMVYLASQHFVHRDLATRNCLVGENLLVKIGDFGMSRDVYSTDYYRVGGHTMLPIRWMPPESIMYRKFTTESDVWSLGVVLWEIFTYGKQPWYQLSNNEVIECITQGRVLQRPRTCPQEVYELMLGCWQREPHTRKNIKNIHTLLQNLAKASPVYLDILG

| Compound | Orthosteric activity (induction of TrkB phosphorylation) (TrkB receptor) | Clint MLM [1] | Metabolic stability in MLM (classification) [1] | Clint HLM [2] | Metabolic stability in HLM (classification) [2] | PAMPA (PAMPA) | Chemical Stability [% of Degradation] [3] | Papp,AB (Caco-2 monolayer) | Papp,BA (Caco-2 monolayer) | Binding to the exTrkB receptor (exTrkB) | Kinetic Solubility [4] | Permeability in PAMPA assay (good permeability) (PAMPA) | Permeability in Caco-2 system (good permeability) (Caco-2 monolayer) | further results |
| --- | --- | --- | --- | --- | --- | --- | --- | --- | --- | --- | --- | --- | --- | --- |
| OCCN(CCO)c1ccc(C(c2ccc(Cl)cc2)c2ccc(N(CCO)CCO)cc2)cc1 [LM22-B10] | did not observe any orthosteric activity | 4.8 μL·min^−1·mgprotein^−1 | stable | 29 μL·min^−1·mgprotein^−1 | moderately stable | 2.36 10^−6·cm/s | 4.18% | 6.47 10^−6·cm/s | 4.97 10^−6·cm/s | not observed |  |  |  | Kd (exTrkB; non-binding compounds given as 0): 83 µM |
| NCCCC[C@H](NC(=O)[C@H](CO)NC(=O)CCC(=O)O)C(=O)NCCCCCCNC(=O)[C@H](CCCCN)NC(=O)[C@H](CO)NC(=O)CCC(=O)O [GSB-106, [OH-Suc-Ser-Lys-NH-(CH2)3-]2] | did not observe any orthosteric activity |  | instability of this compound in the experimental system |  | instability of this compound in the experimental system | 0.85 10^−6·cm/s | Stable |  |  | not observed | 152.7 µM |  |  |  |
| 7-hydroxy-8-methoxyflavone (7H8M-flavone) and 8-hydroxy-7-methoxyflavone (8H7M-flavone) [7H8M-flavone 8H7M-flavone] |  |  |  |  |  |  |  |  |  |  |  |  |  | C brain, individual mice (in vivo; 50 mg/kg): < LLQ; C brain, individual mice (in vivo; iv, 1 mg/kg): < LLQ; C plasma, individual mice (in vivo; iv, 1 mg/kg): < LLQ; Time of maximal plasma concentration (in vivo; iv, 1 mg/kg): 5 min; Time of maximal plasma concentration (in vivo; po, 50 mg/kg): 10 min |
| CC(C)CCNc1ncccc1C(=O)N1CCN(Cc2ccccc2)CC1 [NSI-189] | did not observe any orthosteric activity | 1316.7 μL·min^−1·mgprotein^−1 | highly unstable | 466.6 μL·min^−1·mgprotein^−1 | highly unstable | 8.91 10^−6·cm/s | 0.65% | 28.23 10^−6·cm/s | 13.22 10^−6·cm/s | not observed | 500 µM | > 10^−6 cm/s | > 10^−6 cm/s |  |
| COc1ccc(-c2cc3cccc(O)c3c(=O)o2)cc1 [Isocumarin, 8-hydroxy-3-(4′-methoxyphenyl)-isocumarin] | did not observe any orthosteric activity |  | highly unstable |  | highly unstable | 0.22 10^−6·cm/s | Stable |  |  | not observed |  |  |  | microsomal CLint at 1 μM ([1]; mouse, liver microsomes): 407 µL/min/mg; microsomal CLint at 1 μM ([2]; human, liver microsomes): 781 µL/min/mg; Papp A→B at 2 h [5]: 1.6 ×10⁻⁶ cm/s; Papp B→A at 2 h [5]: 2.18 ×10⁻⁶ cm/s |
| CN(C)c1ccc(-c2cc(=O)c3ccc(O)c(O)c3o2)cc1 [4′-dimethylamino-7,8-DHF] | did not observe any orthosteric activity | 365.1 μL·min^−1·mgprotein^−1 | highly unstable | 175.7 μL·min^−1·mgprotein^−1 | highly unstable | 15.5 10^−6·cm/s | 1.31% | 15.61 10^−6·cm/s | 9.03 10^−6·cm/s | not observed |  | > 10^−6 cm/s | > 10^−6 cm/s |  |
